Measurements from patent US10406120B2, “Methods and compositions for treating kidney disorders” (Golden Biotechnology Corporation, priority 2013, dated 2019).

What was measured:
[1] = system: ROS; assay: AcP-IgAN model: ROS levels; assay type: in vivo, B cell-deficient mice; settings: AcP-IgAN mice
Procedure: Kidney in-situ superoxide anion production was determined by DHE labeling according to the known method. (Wu, et al., Nephrol Dial Transplant, 2008, 23: 3082-3090, or Ka, et al., J. Am. Soc. Nephrol. 2007, 18:2473-2485) Fluorescent images were quantified by counting the percentage of positive nuclei in the total nuclei per kidney cross section. Sera and kidney tissues were assessed for superoxide anion according to the known method. (Wu, et al., J Pineal Res, 2001, 30: 147-156, or Ka, et al., J. Am. Soc. Nephrol. 2007, 18:2473-2485) For ROS levels of serum, urine, and renal tissue, the samples were incubated with Krebs-HEPES buffer, and lucigenin (Sigma-Aldrich Chemical Co, MO) at 1.25 mM was used as substrate. Luminescence counts were obtained in duplicate at 15 sec intervals by a microplate luminometer (Hidex Microplate Luminometer, Finland), as previously described (Kretzler, et al.,. Virchows Arch, 425: 181-193, 1994). The superoxide anion activity was expressed as relative luminescence units (RLU) per 15 min per mg of organ dry weight (i.e., RUL/15 min/mg) or RLU/15 min/ml.
(§1) B cell-deficient mice (B6.129S2-Igh-6tm1Cgn/J) were obtained from the Academia Sinica (Professor John T. Kung, Institute of Molecular Biology), and maintained at the animal center of the National Defense Medical Center, Taipei, Taiwan. AcP-IgAN was induced in the mice by daily injection of purified IgA anti-phosphorylcholine antibodies and pneumococcal C-polysaccharide (PnC) as described previously (Chao, et al., Kidney Int. 70:283-297; 2006). All animal experiments were performed with the approval of the Institutional Animal Care and Use Committee of The National Defense Medical Center, Taiwan, and were consistent with the NIH Guide for the Care and Use of Laboratory Animals.

[2] = system: NAD(P)H oxidase subunit p47^phox; assay: FSGS model: Western blot of cytosolic p47^phox in kidney; assay type: in vivo, BALB/c mice; settings: FSGS mice, day 14 to day 21, vs control FSGS mice
Procedure: Experiments described herein were performed on 8-week-old female BALB/c mice. The FSGS mice were injected intravenously with a single dose of adriamycin (0.1 mg/10 g body weight). The mice were given Compound 1 six hours before adriamycin injection by gavage daily till sacrifice. BALB/c mice intraperitoneal injected with normal saline were used as normal controls, while ASLN mice given vehicle (corn oil) by gavage were used as disease controls. Mice were killed at day 7, 14, or 21 after disease induction, and spleen, renal cortical tissue, and blood samples collected and stored appropriately until analysis. All animal experiments were performed with the ethical approval of the Institutional Animal Care and Use Committee of The National Defense Medical Center, Taiwan and performed according to the ethical rules in the NIH Guide for the Care and Use of Laboratory Animals.
The preparation of cytoplasmic and nuclear proteins of renal tissues was extracted using the Nuclear Extract Kit (Active Motif, Tokyo, Japan) according to the manufacturer's instructions. Target proteins in the cytoplasmic and/or nuclear fractions of kidney tissue were measured by Western blot analysis using rabbit antibodies against mouse Nrf2, or p47^phox (Santa Cruz). […]

[3] = system: IL-1β; assay: AcP-IgAN model: serum IL-1β ELISA; assay type: in vivo, B cell-deficient mice; settings: AcP-IgAN mice, day 28, vs control AcP-IgAN mice (FIG. 15C)
Procedure: as §1
Serum levels of IL-1β (eBiosceience, CA), IL-6 (eBiosceience), IL-18 (MBL, Japan), and MCP-1 (eBiosceience) were measured using commercial ELISA kits according to the manufacturer's instructions.

[4] = system: IL-1beta; assay: AcP-IgAN model: renal IL-1beta mRNA; assay type: in vivo, B cell-deficient mice
Procedure: as §1
Total cortical kidney RNA was extracted with TriZOL reagents (Invitrogen) from cortical tissue of the kidney. For first-strand cDNA synthesis, 1.5 μg of total RNA was used in a single-round reverse transcriptase reaction. The reaction mixture consisted of 0.9 μl of Oligo (dT) 12 to 18 primer, 1.0 mM deoxyribonucleotide triphosphate (dNTP), 1 μl first strand buffer, 0.4 mM dithiothreitol, 80 U of RNaseout recombinant ribonuclease inhibitor, and 300 U of superscript II RNase H (Invitrogen). Real-time PCR was performed on an ABI Prism 7700 Sequence Detection System (Applied Biosystems, CA). All of the probes and primers were Assays-on-Demand Gene expression products (Applied Biosystems). […]

[5] = system: nitric oxide (NO); assay: AcP-IgAN model: NO levels; assay type: in vivo, B cell-deficient mice; settings: AcP-IgAN mice
Source text: NO levels in serum were detected with NO Detection kit (iNtRON Biotechnology, Seongnam, Korea), based on diazotization (Griess method), according to the manufacturer's instructions.
as §1

[6] = system: glutathione peroxidase (GPx); assay: AcP-IgAN model: renal GPx; assay type: in vivo, B cell-deficient mice; settings: AcP-IgAN mice
Procedure: as §1
Nuclear proteins were extracted using a nuclear extract kit (Active Motif, Japan). Phospho-NF-κB p65 and nuclear factor-erythroid-2-related factor 2 (NrF2) were measured in renal tissue nuclear protein extracts using Trans-AM ELISA assay kits (Active Motif), according to the manufacturer's instructions. Renal cytosolic protein extracts using RIPA buffer (Cell signaling). Cytosolic glutathione peroxidase (GPx) (Cayman, Mich.) and cytosolic heme oxygenase-1 (HO-1) (Enzo Life Sciences, NY) were measured using commercial ELISA kits according to the manufacturer's instructions. Both were expressed relative to the protein concentration in the lysate.

[7] = day 3, vs control AcP-IgAN mice
[8] = day 28, vs control AcP-IgAN mice

Q: Which “ROS levels in sera” value [1, 7] does the source give for `COC1=C(OC)[C@H](O)[C@H](C/C=C(\C)CC/C=C(\C)CCC=C(C)C)[C@@H](C)C1=O` [Compound 1, Antroquinonol] here?
A: substantial reduction

Q: And the “ROS levels in renal tissues” value [1, 8]?
A: substantial reduction

Q: What about the “ROS levels in sera” value [1, 8] of the same compound?
A: substantial reduction

Q: And the “ROS levels in urine” value [1, 8]?
A: substantial reduction

Q: And the “protein levels of NAD(P)H oxidase subunit p47^phox in kidney (increase in FSGS)” value [2]?
A: abolished

Q: What about the “serum levels of IL-1β (increase)” value [3] of the same compound?
A: greatly inhibited

Q: And the “renal mRNA levels of IL-1beta (elevation)” value ([4]; AcP-IgAN mice, day 28, vs control AcP-IgAN mice)?
A: significantly inhibited

Q: And the “renal IL-1beta mRNA expression” value ([4]; all mice, day 3)?
A: no detectable increase

Q: And the “urine NO levels” value ([5]; both day 3 and day 28, vs control AcP-IgAN mice)?
A: significantly decreased

Q: What about the “serum levels of NO” value [5, 7] of the same compound?
A: no significant difference

Q: What about the “serum levels of NO” value [5, 8] of the same compound?
A: substantially reduced

Q: And the “GPx expression levels in renal tissues” value [6, 7]?
A: no difference

Q: What about the “GPx expression levels in renal tissues” value [6, 8] of the same compound?
A: significantly higher
